# Earlier results as cited in the CATMoS acute toxicity set (Mansouri et al. 2021).
# Values joined by “and” are separate entries in the source; they are usually repeats but may differ in a detail not shown here. Identical values can stand only once.
# Assay: rat acute oral toxicity
# Settings: in vivo
row,Compound,LD50
1,CN(C)CC/C=C1\c2ccccc2COc2ccccc21,147 mg/kg
2,CC1(C)[C@H](C=C2CCCC2)[C@H]1C(=O)OCc1coc(Cc2ccccc2)c1,63 mg/kg
3,CCCCCCCCCCCC(=O)OC1=C(c2c(C)cc(C)cc2C)C(=O)c2ccccc21,9500 mg/kg
4,O=c1oc(=O)c2cc3c(=O)oc(=O)c3cc12,2250 mg/kg
5,O=C(NC1CCN(CCc2c[nH]c3ccccc23)CC1)c1ccccc1,1800 mg/kg
6,CC(C)(C)N(CCO)CCO,2720 mg/kg
7,C=CCNc1nc(NCC=C)nc(N(CCCCCCN(c2nc(NCC=C)nc(NCC=C)n2)C2CC(C)(C)NC(C)(C)C2)C2CC(C)(C)NC(C)(C)C2)n1,4010 mg/kg
8,Cc1cccc(C)c1NC(=O)c1cc(S(N)(=O)=O)c(Cl)cc1O,1640 mg/kg
9,CC(=O)NCCO,27000 mg/kg
10,CCOP(=O)(OCC)OC(=C(Cl)Cl)c1cc(Cl)cc(Cl)c1,20 mg/kg
11,CCCCCOc1ccc(Br)cc1COCCN1CCOCC1,1200 mg/kg
12,CCN(CC)CCNc1c2ccccc2nc2cccc([N+](=O)[O-])c12,42.2 mg/kg
13,CCN1CCNCC1,2160 mg/kg
14,CCSC(SCC)c1ccccc1OC(=O)NC,500 mg/kg
15,Oc1ccc(O)c2[nH]c(C(F)(F)F)nc12,29 mg/kg
16,Oc1ccccc1S,178 mg/kg
17,CC(=O)Oc1cc(C(F)(F)F)ccc1C(=O)O,402 mg/kg
18,CN(C)CCOC1=Cc2ccccc2Sc2ccc(Cl)cc21,306 mg/kg
19,COc1cc(N)c(Cl)cc1C(=O)NC1CCNCC1,2550 mg/kg
20,COC1=CC(=O)OC(C=CC2=CCCC=C2)C1 (stereo not given),16000 mg/kg
21,CCOP(=O)(OCC)Oc1cc(C)n(CC)c(=O)c1,1.62 mg/kg
22,CCCCSP(=O)(N(C)C)N(C)C,208 mg/kg
23,Nc1cccc(C(O)CNC2CC2)c1 (stereo not given),3250 mg/kg
24,C=C1C(C)(C)C2(Cl)C(Cl)(Cl)C(Cl)(Cl)C1(Cl)C2(Cl)Cl (stereo not given),40 mg/kg

row,Compound,LD50
1,CCOP(=O)(OCC)SCSP(=S)(OCC)OCC,35.1 mg/kg
2,CC(=S)Nc1ccccc1,2640 mg/kg
3,CC(Cc1ccccc1)NCCCCl (stereo not given),410 mg/kg
4,CCOC(N)=C1Sc2ccccc2C1=O,4000 mg/kg
5,CC=CC(C)OC (stereo not given),1210 mg/kg
6,CCN1CCC(=C(c2ccccc2)c2ccccc2)C1,166 mg/kg and 450 mg/kg
7,CNS(=O)(=O)OCC(=O)N1CCCCCC1,2040 mg/kg
8,Cc1ccc(S(=O)(=O)Cl)cc1,4680 mg/kg
9,Cc1ccccc1CNC1=NCCS1,164 mg/kg
10,Cc1cc2c(C(C)C)c(O)c(O)c(C=O)c2c(O)c1-c1c(C)cc2c(C(C)C)c(O)c(O)c(C=O)c2c1O,2320 mg/kg
11,CCO[Si](CC)(OCC)OCC,14000 mg/kg
12,COc1ccc(N)cc1OC,681 mg/kg
13,CCCCOP(=O)(O)OCCCC,3200 mg/kg and 3520 mg/kg
14,NC(=S)C1CC=CCC1 (stereo not given),50 mg/kg
15,CN1C(=O)CCS(=O)(=O)C1c1ccc(Cl)cc1 (stereo not given),605 mg/kg
16,CCC(=O)OCCOc1ccccc1,4400 mg/kg
17,CC(F)(F)C(F)(F)C(F)(F)C(O)(F)F,1110 mg/kg
18,OC(Cn1cncn1)(Cn1cncn1)c1ccc(F)cc1F,1270 mg/kg
19,CCCCC1C(=O)NC(=O)N(C2CCCCC2)C1=O (stereo not given),1120 mg/kg
20,C1COCCOCCOCCO1,2830 mg/kg
21,OC[C@H]1O[C@@H]2O[C@H]3[C@H](O)[C@@H](O)[C@@H](O[C@H]4[C@H](O)[C@@H](O)[C@@H](O[C@H]5[C@H](O)[C@@H](O)[C@@H](O[C@H]6[C@H](O)[C@@H](O)[C@@H](O[C@H]7[C@H](O)[C@@H](O)[C@@H](O[C@H]8[C@H](O)[C@@H](O)[C@@H](O[C@H]1[C@H](O)[C@H]2O)O[C@@H]8CO)O[C@@H]7CO)O[C@@H]6CO)O[C@@H]5CO)O[C@@H]4CO)O[C@@H]3CO,18800 mg/kg
22,NCCNCCO,3000 mg/kg
23,Cc1cn[nH]c1,534 mg/kg
24,CCCCOC(=O)[C@@H](C)Oc1ccc(Oc2ccc(C(F)(F)F)cn2)cc1,2710 mg/kg

row,Compound,LD50
1,CN(C)CCC(c1ccc(Br)cc1)c1ccccn1 (stereo not given),318 mg/kg
2,CC[Si](OC(C)=O)(OC(C)=O)OC(C)=O,1460 mg/kg
3,O=C(C(F)(F)Cl)C(F)(F)Cl,61 mg/kg
4,O=C(O)c1c(Cl)c(Cl)c(Cl)c(Cl)c1C1c2cc(Br)c(O)c(Br)c2Oc2c1cc(Br)c(O)c2Br,8400 mg/kg
5,CC1(C)NC(=O)N(c2ccc([N+](=O)[O-])c(C(F)(F)F)c2)C1=O,195 mg/kg
6,CC(=O)OC(C)OC(=O)C(C)c1ccc(-c2ccccc2)c(F)c1 (stereo not given),66 mg/kg
7,CCOCCOCCOc1ccccc1,2140 mg/kg
8,Cc1nn(-c2ccccc2)c(=O)c2noc(C)c12,1000 mg/kg
9,CC(=O)OCCC(C)CC(C)(C)C (stereo not given),4250 mg/kg
10,Cc1ccc(Cc2ccc(C)cc2)cc1,3800 mg/kg and 1700 mg/kg
11,Nc1ccc(F)c(F)c1,340 mg/kg
12,OCC(O)C1CC=CCC1 (stereo not given),1070 mg/kg
13,O=C(O)C(Cl)(Cl)CCl,2460 mg/kg
14,CCCOCCOC(C)=O,9460 mg/kg
15,N#CN=c1ccccn1Cc1c(Cl)cccc1Cl,500 mg/kg
16,CC1=[N+](C)C2CCC1(c1ccccc1)c1ccccc12 (stereo not given),707 mg/kg
17,CCCCCCC(C)=CC#N,1720 mg/kg
18,CC(=O)OCCC(C)C,16600 mg/kg
19,Cc1ccc2c(c1)CC(=O)c1cc(C(C)C(=O)O)ccc1O2 (stereo not given),147 mg/kg
20,NC1Cc2ccccc2C1,326 mg/kg
21,COc1ccc2c(c1)OC(C)(C)[C@H](c1ccccc1)[C@H]2c1ccc(OCCN2CCCC2)cc1 (racemic),800 mg/kg
22,O=C(NN1CCCC1)NS(=O)(=O)c1ccc(Cl)cc1,4100 mg/kg
